Test results taken from article PMC6779874, “ACT001, a novel PAI-1 inhibitor, exerts synergistic effects in combination with cisplatin by inhibiting PI3K/AKT pathway in glioma” (Cell Death & Disease, 2019).

Tests used:
[1] = target: T1, PAI-1 (plasminogen activator inhibitor-1) (Homo sapiens, UniProt P05121); test: SPR (Biacore […], immobilized PAI-1); also CETSA in cell extract; prodrug that releases MCL; assay type: binding
T1 construct: gene SERPINE1; Recombinant human PAI-1

[2] = target: T1, PAI-1 (plasminogen activator inhibitor-1); test: SPR (Biacore […], immobilized PAI-1); also CETSA/ITDR in cell extract; assay type: binding

T1 sequence (P05121 24-402): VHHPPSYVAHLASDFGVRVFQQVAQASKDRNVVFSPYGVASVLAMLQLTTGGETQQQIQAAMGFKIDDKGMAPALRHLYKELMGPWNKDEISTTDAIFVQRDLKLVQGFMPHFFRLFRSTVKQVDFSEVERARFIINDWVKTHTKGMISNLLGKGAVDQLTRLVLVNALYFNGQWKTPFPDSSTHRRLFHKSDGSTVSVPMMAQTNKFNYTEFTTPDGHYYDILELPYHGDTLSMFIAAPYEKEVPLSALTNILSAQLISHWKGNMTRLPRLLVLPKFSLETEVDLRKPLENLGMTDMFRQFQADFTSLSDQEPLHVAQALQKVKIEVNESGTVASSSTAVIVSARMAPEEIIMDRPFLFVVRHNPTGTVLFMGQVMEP

Row | Kd [2] [mM] | Compound | Kd [1] [mM]
1 |  | CC1=C2CC[C@@](C)(O)[C@@H]2[C@H]2OC(=O)[C@@H](CN(C)C)[C@@H]2CC1 [ACT001] | 2.31
2 | 0.0108 | C=C1C(=O)O[C@H]2[C@H]1CCC(C)=C1CC[C@@](C)(O)[C@@H]12 [MCL] | 
